Assay results as given in article PMC4326964, “Probing the substrate specificity of Trypanosoma brucei GlcNAc-PI de-N-acetylase with synthetic substrate analogues” (Organic & Biomolecular Chemistry, 2014).
Entries after “also recorded” stand apart in the source; their conditions may differ.

How the values were obtained:
[1] = molecular target: T1, T. brucei GlcNAc-PI de-N-acetylase (Trypanosoma brucei brucei, UniProt Q8I8A5); assay: Inhibition of turnover of α-D-GlcpNAc-IPC18 (3) in T. brucei cell-free system, LC-MS/MS assay; assay type: biochemical; settings: inhibition of turnover of 3; tested at 100 μM
Method: Since the majority of the compounds were not processed by the T. brucei GlcNAc-PI de-N-acetylase, we tested their ability to inhibit the turnover of the α-D-GlcpNAc-IPC18 (3) substrate by the T. brucei GlcNAc-PI de-N-acetylase in the LC-MS/MS assay.
Inhibition assays were performed in 96-well plates in 100 μL final volume, with 1% v/v DMSO with or without inhibitor. Trypanosome cell-free system (2.5 × 10^6 cell equivalents per assay) in incorporation buffer were added to wells containing 500 pmol α-D-GlcpNAc-IPC18 (3) with or without inhibitor and incubated at 37 °C for 1 h. The reaction was quenched and the glycolipids enriched and analyzed by LC-MS/MS as described below.
(§1) Enrichment of glycolipids was performed in a 96-well plate format. Reactions were quenched by addition of 200 μL of 5% propan-1-ol, 5 mM NH4OAc, and the glycolipids were bound to C18 resin (50 mg Isolute Array cartridge), washed three times with 200 μL 5% propan-1-ol, 5 mM NH4OAc and eluted with 100 μL 40% propan-1-ol, 5 mM NH4OAc into a 96-well collection plate.
(§2) Glycolipids were analyzed by liquid chromatography coupled to an electrospray tandem mass spectrometer (LC-MS/MS). Samples (40 μL) were injected directly from a 96-well plate onto a 10 × 1 mm C18 column (ACE, […]) and then eluted using a binary gradient of 5–80% propan-1-ol in 5 mM NH4OAc (Dionex Ultimate 3000). The gradient consisted of 2 min 0% B, 2–4 min 0–100% B, 4–8 min 100%, 8–9 min 100–0% B, 9–10 min 0% B where buffer A consisted of 5% propan-1-ol, 5 mM NH4OAc and buffer B 80% propan-1-ol, 5 mM NH4OAc. The glycolipids were analysed on an electrospray triple quadrapole mass spectrometer (Micromass Quattro Ultima) in multiple reaction monitoring mode.
For inhibition assays, the turnover of the substrate α-D-GlcpNAc-IPC18 (3) was used to calculate the percentage of substrate conversion to product in a given sample. Inhibitor IC50 values were calculated using a four-parameter fit of eight-point potency curves derived from three independent experiments, and are quoted with a standard deviation.

[2] = tested on: T. brucei GPI pathway; assay: Trypanosome cell-free system with [3H]-mannose labelling (HPTLC, fluorography); assay type: biochemical, Trypanosoma brucei
Excerpt: The ability of 49 and 48 to act as a substrate and inhibitor, respectively, of the T. brucei GPI pathway was confirmed using the trypanosome cell-free system with [^3H]-mannose labelling (Fig. 5). […] As these mannosylated compounds lack the inositol 2-OH group they cannot undergo inositol acylation, a prerequisite for the transfer of ethanolamine, and thus are not processed past the Man3-species.
Fig. 5 The trypanosome GPI biosynthesis in the cell-free system. A. The T. brucei cell-free system was incubated without exogenous substrate, with 1, α-D-GlcpNAc-PI (10 μM), or with 49 (100 μM) in the presence of GDP-[^3H]Mannose to stimulate the production of radiolabelled mannosylated GPI intermediates. B. Inhibition of the turnover of 3, α-D-GlcpNAc-IPC18 (10 μM), in the presence of 48 (100 μM). Glycolipid products were extracted, separated by high-performance thin-layer chromatography, and visualised by fluorography. DPM – dolichol-phosphate-mannose, M1 – Man1 species, M2 – Man2 species, M3 – Man3 species, A′ – EtNPMan3 species, where the identity and migration of the species depends on the glycolipid substrate employed.
The formation of GPI precursors is monitored by following the incorporation of [^3H]-mannose and then they were analysed using […] and fluorography as described previously.

[3] = molecular target: T1, T. brucei GlcNAc-PI de-N-acetylase; assay: Substrate recognition (de-N-acetylation turnover) in T. brucei cell-free system, LC-MS/MS assay; assay type: biochemical; settings: for Turnover: conversion of N-acetylated compound to free amine, 37 °C, 1 h, ND = turnover not detected, for 53 measured via d6-Ac2O derivatisation of the free amine; for Relative turnover: turnover relative to α-D-GlcpNAc-PI (1); for Substrate activity: recognised and processed (in words): N-acetylated analogue as substrate of the de-N-acetylase
Method: [8],[10] The N-acetylated analogues of these compounds were prepared as previously described to give compounds 47–53 (Fig. 3).
Using LC-MS/MS, multiple reaction monitoring of characteristic transitions for the N-acetylated and corresponding amine form of each compound was used to directly measure the rate of conversion of the N-acetylated compound to the free amine (Table 1). As no suitable transition was identified for the amine form of 13, the enzymatic turnover was accessed by reacting any free amine formed with d 6-Ac2O, and measuring the formation of the d 3-N-acetylated form by LC-MS/MS.
The synthesis of 1-D-6-O-(2-amino-2-deoxy-α-D-glucopyranosyl)-myo-inositol 1-(octadecyl phosphate), (4, α-D-GlcpNH2-IPC18), [15] has been described previously. The corresponding N-acetyl derivate α-D-GlcpNAc-IPC18 (3) was prepared by treatment with acetic anhydride, [13] and the concentration of stock solutions determined by measurement of the inositol content by selected ion-monitoring GC-MS. Bloodstream form Trypanosome brucei (variant MITat1.4) were isolated and membranes (cell-free system) prepared as described previously and stored at –80 °C.
Substrate recognition assays were performed using 500 pmol of α-D-GlcpNAc-PI (1) in incorporation buffer (25 mM Tris pH 8.0, 50 mM KCl, 50 mM MnCl2) and varying amounts of trypanosome cell-free system (0–15 × 10^6 cell equivalents per assay) in 96-well plates containing 100 μL final volume, and incubated at 37 °C for 1 h. The reaction was quenched and the glycolipids enriched and analyzed by LC-MS/MS as described below.
as §1
Prior to subsequent analysis, compound 13 was dried under nitrogen, resuspended in MeOH (100 μL) and any free amine reacted with excess d 6-Ac2O (1.5 μL) in the presence of pyridine (10 μL) for 15 min. The reaction was quenched with water (50 μL), dried under nitrogen and resuspended in 100 μL 40% propan-1-ol, 5 mM NH4OAc.
as §2
For each pseudodisaccharide analogue (7–12), standards of the N-acetylated compound and corresponding free amine were analyzed separately in order to identify unique transitions for use in subsequent multiple reaction monitoring experiments (Table 1). The ratio of the integrals for these transitions was used to calculate the percentage of substrate conversion to product in a given sample. For compound 13, standards of the N-acetylated compound and the d 3-N-acetylated form were analyzed separately and found to produce a common fragment for use in subsequent multiple reaction monitoring experiments.

[4] = molecular target: T1, T. brucei GlcNAc-PI de-N-acetylase; settings: previous studies; cited from earlier work

T1 sequence (Q8I8A5 entry or part of it): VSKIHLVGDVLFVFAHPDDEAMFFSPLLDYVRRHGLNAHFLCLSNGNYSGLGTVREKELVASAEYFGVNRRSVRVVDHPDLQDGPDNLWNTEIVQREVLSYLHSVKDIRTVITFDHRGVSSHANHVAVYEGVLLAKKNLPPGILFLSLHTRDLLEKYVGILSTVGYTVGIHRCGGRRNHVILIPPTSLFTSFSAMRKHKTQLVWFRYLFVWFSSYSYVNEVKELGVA

| Compound | Inhibitory activity (in words) [1] | Substrate activity: recognised and processed (in words) [3] | also measured |
| --- | --- | --- | --- |
| CCCCCCCCCCCCCCCCCCOP(=O)(O)O[C@@H]1CCCC[C@H]1O[C@@H]1O[C@H](CO)[C@@H](O)[C@H](O)[C@H]1NC(C)=O [Compound 48] | act as inhibitors | – | Inhibition of priming of the cell-free system with 3 ([2]; 3 (α-D-GlcpNAc-IPC18) at 10 μM, inhibitor at 100 μM): efficiently prevented |
| CCCCCCCCCCCCCCCCCCOP(=O)(O)OC1C(O)C(O)C(O)C(O)C1OC1OC(CO)C(O)C(O)C1NC(C)=O (stereo not shown) [Compound 3, reference compound] | – | – | Turnover [3]: 27.0 ± 6.0 pmol/10^6 cells equiv.; Relative turnover [3]: 450% |
| CCCCCCCCCCCCCCCC(=O)OC[C@H](COP(=O)(O)O[C@@H]1CCCC[C@H]1O[C@@H]1O[C@H](CO)[C@@H](O)[C@H](O)[C@H]1NC(C)=O)OC(=O)CCCCCCCCCCCCCCC [Compound 50] | neither a substrate nor an inhibitor | neither a substrate nor an inhibitor | – |
| CCCCCCCCCCCCCCCC(=O)OC[C@H](COP(=O)(O)O[C@@H]1[C@H](O)[C@H](O)[C@@H](O)[C@H](O)[C@H]1O[C@@H]1O[C@H](CO)[C@@H](O)[C@H](O)[C@H]1NC(C)=O)OC(=O)CCCCCCCCCCCCCCC [Compound 6] | – | – | Recognition and processing by the enzyme (in words) [4]: recognised and processed; also recorded: recognise and process |
| CCCCCCCCCCCCCCCCCCS(=O)(=O)N[C@@H]1CCCC[C@H]1O[C@H]1O[C@H](CO)[C@@H](O)[C@H](O)[C@H]1NC(C)=O [Compound 52] | inability | inability | – |
| CCCCCCCCCCCCCCCC(=O)OC[C@H](COP(=O)(O)O[C@H]1[C@@H](O)[C@@H](O)[C@H](O)[C@@H](O)[C@@H]1O[C@H]1O[C@H](CO)[C@@H](O)[C@H](O)[C@H]1NC(C)=O)OC(=O)CCCCCCCCCCCCCCC [Compound 5] | – | – | Recognition and processing by the enzyme (in words) [4]: recognise and process |
| CCCCCCCCCCCCCCCCCCOP(=O)(O)O[C@@H]1CCCC[C@H]1OCC(CO)NC(C)=O (stereo partly shown) [Compound 53] | inactivity | inactivity | – |
| CCCCCCCCCCCCCCCCCCOP(=O)(O)O[C@@H]1CCCC[C@H]1O[C@H]1O[C@H](CO)[C@@H](O)[C@H](O)[C@H]1NC(C)=O [Compound 47] | act as inhibitors | – | – |
| CCCCCCCCCCCCCCCC(=O)OCC(COP(=O)(O)OC1C(O)C(O)C(O)C(O)C1OC1OC(CO)C(O)C(O)C1NC(C)=O)OC(=O)CCCCCCCCCCCCCCC [Compound 1, 1-D-(2-acetamido-2-deoxy-α-D-glucopyranosyl)-myo-inositol 1-(1,2-di-O-hexadecanoyl-sn-glycerol 3-phosphate), reference compound] | – | – | Turnover [3]: 6.1 ± 0.9 pmol/10^6 cells equiv.; Relative turnover [3]: 100%; Recognition and processing by the enzyme (in words) [4]: recognised and processed |
| CCCCCCCCCCCCCCCCCCS(=O)(=O)N[C@@H]1CCCC[C@H]1O[C@@H]1O[C@H](CO)[C@@H](O)[C@H](O)[C@H]1NC(C)=O [Compound 51] | inability | inability | – |
| CCCCCCCCCCCCCCCC(=O)OC[C@H](COP(=O)(O)O[C@@H]1CCCC[C@H]1O[C@H]1O[C@H](CO)[C@@H](O)[C@H](O)[C@H]1NC(C)=O)OC(=O)CCCCCCCCCCCCCCC [Compound 49] | – | both recognised and processed | Turnover [3]: 1.3 ± 0.3 pmol/10^6 cells equiv.; Relative turnover [3]: 22%; Formation of mannosylated GPI intermediates on priming the cell-free system ([2]; 49 at 100 μM, GDP-[3H]Mannose, bands sensitive to jackbean α-mannosidase): three bands corresponding to the addition of 1–3 mannose residues |
